The term Papp denotes the rate of passage across a membrane or cell layer, normalised by area and donor concentration. A higher Papp goes with fast passage. One may read the IC50 as the concentration at which inhibition is half-maximal. Read a high IC50 as a need for much substance. By Cmax is commonly meant the highest concentration seen after dosing.

Peptide text beside a SMILES is read from it.

One data set addresses ADORA3 (Homo sapiens, UniProt P0DMS8). The settings on record: Table 2, ADORA3; accurate to ±20%.
The next data set has as its target T1, CHRM1 (Homo sapiens, UniProt P11229).
T1 sequence (P11229 1-460): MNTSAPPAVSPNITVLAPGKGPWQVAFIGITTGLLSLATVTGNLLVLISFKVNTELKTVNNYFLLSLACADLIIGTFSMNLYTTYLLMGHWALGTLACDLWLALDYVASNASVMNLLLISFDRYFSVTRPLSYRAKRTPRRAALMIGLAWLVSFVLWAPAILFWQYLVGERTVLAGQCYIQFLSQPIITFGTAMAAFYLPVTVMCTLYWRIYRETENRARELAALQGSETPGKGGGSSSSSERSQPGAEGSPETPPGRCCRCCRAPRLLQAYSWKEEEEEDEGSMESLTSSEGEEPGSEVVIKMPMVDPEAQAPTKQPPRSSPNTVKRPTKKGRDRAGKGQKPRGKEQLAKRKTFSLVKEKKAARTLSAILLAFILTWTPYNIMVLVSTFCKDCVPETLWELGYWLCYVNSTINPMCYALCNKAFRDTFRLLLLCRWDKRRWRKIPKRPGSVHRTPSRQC

Another data set deals with DRD3 (Homo sapiens, UniProt P35462). The settings on record: Table 2, DRD3; accurate to ±20%.
A further data set addresses HTR1A (Homo sapiens, UniProt P08908). The data set is described as follows: safety panel assay, HTR1A. The class given is binding. The settings on record: Table 2, HTR1A; accurate to ±20%.
Another data set has as its target PRG (Homo sapiens, UniProt P06401). The settings on record: Table 2, PRG; accurate to ±20%.
The next data set concerns the target T2, SLCO2B1 (Homo sapiens, UniProt O94956).
T2 sequence (O94956 1-709): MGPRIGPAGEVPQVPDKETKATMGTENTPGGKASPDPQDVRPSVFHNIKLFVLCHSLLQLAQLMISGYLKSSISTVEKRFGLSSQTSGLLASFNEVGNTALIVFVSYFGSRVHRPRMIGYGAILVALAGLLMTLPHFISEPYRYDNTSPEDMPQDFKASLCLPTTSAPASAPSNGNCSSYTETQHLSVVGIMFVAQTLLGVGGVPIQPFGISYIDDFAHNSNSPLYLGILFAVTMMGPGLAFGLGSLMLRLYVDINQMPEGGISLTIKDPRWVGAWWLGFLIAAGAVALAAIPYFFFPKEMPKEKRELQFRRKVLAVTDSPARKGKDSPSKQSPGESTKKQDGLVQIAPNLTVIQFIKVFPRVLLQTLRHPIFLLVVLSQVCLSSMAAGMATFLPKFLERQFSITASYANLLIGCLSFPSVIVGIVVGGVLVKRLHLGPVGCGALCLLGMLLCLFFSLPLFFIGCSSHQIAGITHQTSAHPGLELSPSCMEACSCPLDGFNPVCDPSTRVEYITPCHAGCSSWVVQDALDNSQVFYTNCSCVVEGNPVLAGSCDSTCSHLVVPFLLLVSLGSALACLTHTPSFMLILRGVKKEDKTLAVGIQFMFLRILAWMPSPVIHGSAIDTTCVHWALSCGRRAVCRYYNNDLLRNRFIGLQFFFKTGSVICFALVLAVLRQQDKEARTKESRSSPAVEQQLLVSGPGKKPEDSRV
The data set can be described thus: in vitro transporter inhibition, SLCO2B1. In kind it is biochemical.

A further data set has as its target PDE4D (Homo sapiens, UniProt Q08499). The data set is described as follows: in vitro assay, PDE4D. In kind it is biochemical. To be noted: Table 2, PDE4D; accurate to ±20%.
The target in a further data set is T3, SLCO1B1 (Homo sapiens, UniProt Q9Y6L6).
T3 sequence (Q9Y6L6 1-691): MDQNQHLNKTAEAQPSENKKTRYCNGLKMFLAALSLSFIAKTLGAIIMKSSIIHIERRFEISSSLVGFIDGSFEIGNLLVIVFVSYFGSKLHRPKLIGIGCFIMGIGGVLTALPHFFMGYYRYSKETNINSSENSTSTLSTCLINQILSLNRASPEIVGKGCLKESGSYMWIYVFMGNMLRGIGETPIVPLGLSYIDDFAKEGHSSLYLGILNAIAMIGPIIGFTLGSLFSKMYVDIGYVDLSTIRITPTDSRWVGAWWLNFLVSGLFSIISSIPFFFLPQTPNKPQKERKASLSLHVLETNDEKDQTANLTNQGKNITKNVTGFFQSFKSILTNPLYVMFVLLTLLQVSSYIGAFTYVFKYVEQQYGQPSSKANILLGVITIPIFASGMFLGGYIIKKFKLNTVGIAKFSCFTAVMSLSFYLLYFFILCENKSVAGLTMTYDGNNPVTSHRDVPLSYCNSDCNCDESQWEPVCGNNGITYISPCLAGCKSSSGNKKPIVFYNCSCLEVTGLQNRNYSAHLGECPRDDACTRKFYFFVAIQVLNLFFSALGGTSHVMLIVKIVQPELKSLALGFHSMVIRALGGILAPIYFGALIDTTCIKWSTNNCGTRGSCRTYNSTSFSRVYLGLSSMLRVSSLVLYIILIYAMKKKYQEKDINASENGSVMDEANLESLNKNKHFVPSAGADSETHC
The data set is described as follows: in vitro transporter assay, SLCO1B1. The settings on record: Table 1, predicted target SLCO1B1.

The target in a further data set is T4, ADRA1A (Homo sapiens, UniProt P35348).
T4 sequence (P35348 1-466): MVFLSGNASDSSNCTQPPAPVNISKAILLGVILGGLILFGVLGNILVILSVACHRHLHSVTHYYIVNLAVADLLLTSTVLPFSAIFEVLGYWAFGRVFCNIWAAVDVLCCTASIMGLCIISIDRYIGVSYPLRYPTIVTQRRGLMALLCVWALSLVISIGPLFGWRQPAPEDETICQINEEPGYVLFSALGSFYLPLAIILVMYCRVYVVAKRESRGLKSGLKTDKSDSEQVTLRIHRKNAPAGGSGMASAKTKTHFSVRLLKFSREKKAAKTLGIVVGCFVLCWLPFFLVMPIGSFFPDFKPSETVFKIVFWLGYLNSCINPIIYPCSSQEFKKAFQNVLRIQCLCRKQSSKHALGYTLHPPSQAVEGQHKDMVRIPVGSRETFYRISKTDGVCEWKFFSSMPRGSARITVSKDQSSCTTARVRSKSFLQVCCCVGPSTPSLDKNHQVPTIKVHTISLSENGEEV
To be noted: Table 2, ADRA1A; accurate to ±20%.

A short description of data set [1]: Madin-Darby canine kidney permeability assay. The settings on record: dog, MDCK.
Data set [2] relates to BioMAP Diversity PLUS panel. The data set is described as follows: BioMAP Diversity PLUS panel of cell-based systems.
For another data set, the target named is SLC18A2 (Homo sapiens, UniProt Q05940). The data set can be described thus: transporter inhibition, SLC18A2. The class given is biochemical. To be noted: Table 2, SLC18A2; accurate to ±20%.
The target in the next data set is TBXA2R (Homo sapiens, UniProt P21731). The data set can be described thus: safety panel assay, TBXA2R. In kind it is binding.
The next data set concerns the target SLC6A2 (Homo sapiens, UniProt P23975). To be noted: Table 2, SLC6A2; accurate to ±20%.
In a further data set the target is SCN5A (Homo sapiens, UniProt Q14524). To be noted: Table 2, SCN5A; accurate to ±20%.
In the next data set the target is SLC6A3 (Homo sapiens, UniProt Q01959). The data set can be described thus: safety panel assay, SLC6A3. The settings on record: Table 2, SLC6A3; accurate to ±20%. In kind it is biochemical.
Data set [3] can be described thus: Pharmacokinetics in rats after i.v. and oral administration. The settings on record: rat.
A further data set addresses ACHE (Homo sapiens, UniProt P22303). The settings on record: Table 2, ACHE; accurate to ±20%.
For data set [4] the following is noted: rat, in vivo, 1 mg/kg.
In a further data set the target is PDE3A (Homo sapiens, UniProt Q14432). The data set can be described thus: safety panel assay, PDE3A. In kind it is biochemical.
Another data set deals with PRMT1 (Homo sapiens, UniProt Q99873). The settings on record: Table 1, predicted target PRMT1.
Assay in data set [5]: not given
This is another data set of the same source.

A further data set has as its target NR1I2 (Homo sapiens, UniProt O75469). The data set can be described thus: safety panel assay, NR1I2. In kind it is binding. The settings on record: Table 2, NR1I2; accurate to ±20%.
Another data set addresses ABCB11 (Homo sapiens, UniProt O95342). The data set can be described thus: transporter inhibition, ABCB11. The settings on record: Table 2, ABCB11; accurate to ±20%. The class given is biochemical.

Chain of SLC18A2 (Q05940 whole entry, species assumed): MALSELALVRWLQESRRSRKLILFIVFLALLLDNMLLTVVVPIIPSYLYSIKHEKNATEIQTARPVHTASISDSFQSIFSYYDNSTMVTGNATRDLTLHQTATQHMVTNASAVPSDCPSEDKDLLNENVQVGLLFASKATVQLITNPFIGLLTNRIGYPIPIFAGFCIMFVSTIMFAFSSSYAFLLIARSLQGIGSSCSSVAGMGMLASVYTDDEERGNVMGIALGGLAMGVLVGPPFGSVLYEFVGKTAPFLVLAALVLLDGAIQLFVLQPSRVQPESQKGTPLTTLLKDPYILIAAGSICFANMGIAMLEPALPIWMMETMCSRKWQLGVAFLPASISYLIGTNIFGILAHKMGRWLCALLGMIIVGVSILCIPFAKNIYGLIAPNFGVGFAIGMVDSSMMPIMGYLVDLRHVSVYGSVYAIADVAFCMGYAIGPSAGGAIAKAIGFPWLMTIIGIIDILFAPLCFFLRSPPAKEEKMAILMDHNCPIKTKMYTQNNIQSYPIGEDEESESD
Chain of PDE4D (Q08499 whole entry): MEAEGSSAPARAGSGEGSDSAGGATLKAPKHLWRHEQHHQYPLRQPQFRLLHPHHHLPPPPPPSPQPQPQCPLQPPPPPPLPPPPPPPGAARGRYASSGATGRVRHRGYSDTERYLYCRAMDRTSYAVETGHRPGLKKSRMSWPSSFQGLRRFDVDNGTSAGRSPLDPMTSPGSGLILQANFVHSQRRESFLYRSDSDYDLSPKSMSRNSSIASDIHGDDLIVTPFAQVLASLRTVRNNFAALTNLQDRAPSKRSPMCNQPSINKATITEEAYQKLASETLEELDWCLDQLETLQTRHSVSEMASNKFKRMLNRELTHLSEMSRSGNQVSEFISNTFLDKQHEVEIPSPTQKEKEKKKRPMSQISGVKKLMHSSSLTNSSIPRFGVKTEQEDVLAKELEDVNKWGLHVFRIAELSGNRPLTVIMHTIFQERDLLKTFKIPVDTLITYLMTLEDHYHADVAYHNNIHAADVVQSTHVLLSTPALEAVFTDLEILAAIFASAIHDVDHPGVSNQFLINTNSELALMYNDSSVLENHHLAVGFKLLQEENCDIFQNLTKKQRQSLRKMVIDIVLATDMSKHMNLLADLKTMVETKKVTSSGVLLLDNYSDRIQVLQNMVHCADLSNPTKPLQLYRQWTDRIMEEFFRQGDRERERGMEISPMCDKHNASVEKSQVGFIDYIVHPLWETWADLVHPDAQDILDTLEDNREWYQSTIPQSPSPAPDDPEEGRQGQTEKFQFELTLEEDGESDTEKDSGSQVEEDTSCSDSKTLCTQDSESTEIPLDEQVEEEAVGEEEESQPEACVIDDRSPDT
Chain of TBXA2R (P21731 whole entry, species assumed): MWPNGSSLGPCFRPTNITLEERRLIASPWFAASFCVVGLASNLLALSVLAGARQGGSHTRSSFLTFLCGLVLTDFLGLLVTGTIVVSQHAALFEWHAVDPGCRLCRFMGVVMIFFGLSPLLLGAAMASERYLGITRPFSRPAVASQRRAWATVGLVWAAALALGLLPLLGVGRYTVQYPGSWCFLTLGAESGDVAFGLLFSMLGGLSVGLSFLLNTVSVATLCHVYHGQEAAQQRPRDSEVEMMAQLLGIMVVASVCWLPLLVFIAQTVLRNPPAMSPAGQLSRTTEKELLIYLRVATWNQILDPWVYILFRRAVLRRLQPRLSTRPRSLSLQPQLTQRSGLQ
Chain of PDE3A (Q14432 whole entry, species assumed): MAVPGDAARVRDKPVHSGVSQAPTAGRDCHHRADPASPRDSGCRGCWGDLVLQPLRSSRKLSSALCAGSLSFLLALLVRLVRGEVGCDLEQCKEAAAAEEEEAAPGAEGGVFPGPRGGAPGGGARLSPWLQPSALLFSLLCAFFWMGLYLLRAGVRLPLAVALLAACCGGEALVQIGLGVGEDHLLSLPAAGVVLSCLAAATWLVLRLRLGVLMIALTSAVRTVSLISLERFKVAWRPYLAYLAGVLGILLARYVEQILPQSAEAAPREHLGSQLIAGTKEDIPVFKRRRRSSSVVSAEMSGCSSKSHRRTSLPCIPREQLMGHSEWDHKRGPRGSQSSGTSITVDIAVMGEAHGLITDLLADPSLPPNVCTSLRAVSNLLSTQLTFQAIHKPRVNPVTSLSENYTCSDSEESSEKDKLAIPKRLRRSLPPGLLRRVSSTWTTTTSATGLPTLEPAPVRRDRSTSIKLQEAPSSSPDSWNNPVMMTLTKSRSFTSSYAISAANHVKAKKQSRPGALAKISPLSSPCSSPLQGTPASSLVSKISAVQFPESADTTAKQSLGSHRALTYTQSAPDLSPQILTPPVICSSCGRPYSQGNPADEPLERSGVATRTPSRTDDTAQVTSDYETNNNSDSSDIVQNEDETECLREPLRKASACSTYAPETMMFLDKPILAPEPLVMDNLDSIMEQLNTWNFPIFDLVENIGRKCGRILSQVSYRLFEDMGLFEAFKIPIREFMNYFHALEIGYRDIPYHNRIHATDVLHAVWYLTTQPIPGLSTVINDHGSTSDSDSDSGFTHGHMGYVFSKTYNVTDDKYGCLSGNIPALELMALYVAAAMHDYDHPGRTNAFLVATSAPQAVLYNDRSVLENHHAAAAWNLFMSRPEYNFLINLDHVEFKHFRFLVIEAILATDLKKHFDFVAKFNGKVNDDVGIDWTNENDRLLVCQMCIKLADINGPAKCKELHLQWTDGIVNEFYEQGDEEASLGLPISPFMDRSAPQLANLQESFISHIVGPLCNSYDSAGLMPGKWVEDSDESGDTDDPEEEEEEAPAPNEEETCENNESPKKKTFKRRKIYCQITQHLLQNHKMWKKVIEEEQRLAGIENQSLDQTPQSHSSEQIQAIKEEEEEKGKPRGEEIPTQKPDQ
Chain of SLC6A2 (P23975 whole entry, species assumed): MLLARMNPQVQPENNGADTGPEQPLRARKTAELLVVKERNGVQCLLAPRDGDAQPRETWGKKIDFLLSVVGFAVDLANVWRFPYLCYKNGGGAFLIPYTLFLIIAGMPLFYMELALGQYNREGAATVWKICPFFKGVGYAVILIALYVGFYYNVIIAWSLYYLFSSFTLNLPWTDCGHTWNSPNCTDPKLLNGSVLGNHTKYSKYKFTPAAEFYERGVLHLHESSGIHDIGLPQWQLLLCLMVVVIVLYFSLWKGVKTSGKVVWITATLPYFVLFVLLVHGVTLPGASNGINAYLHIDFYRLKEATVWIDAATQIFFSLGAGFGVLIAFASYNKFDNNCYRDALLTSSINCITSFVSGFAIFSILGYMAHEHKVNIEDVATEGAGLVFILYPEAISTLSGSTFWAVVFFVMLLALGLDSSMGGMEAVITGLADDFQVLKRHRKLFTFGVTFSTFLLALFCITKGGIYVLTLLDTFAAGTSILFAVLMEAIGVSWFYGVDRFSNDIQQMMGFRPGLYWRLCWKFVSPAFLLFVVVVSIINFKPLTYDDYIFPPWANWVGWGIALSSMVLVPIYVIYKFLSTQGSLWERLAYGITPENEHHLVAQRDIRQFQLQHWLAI
Chain of HTR1A (P08908 whole entry, species assumed): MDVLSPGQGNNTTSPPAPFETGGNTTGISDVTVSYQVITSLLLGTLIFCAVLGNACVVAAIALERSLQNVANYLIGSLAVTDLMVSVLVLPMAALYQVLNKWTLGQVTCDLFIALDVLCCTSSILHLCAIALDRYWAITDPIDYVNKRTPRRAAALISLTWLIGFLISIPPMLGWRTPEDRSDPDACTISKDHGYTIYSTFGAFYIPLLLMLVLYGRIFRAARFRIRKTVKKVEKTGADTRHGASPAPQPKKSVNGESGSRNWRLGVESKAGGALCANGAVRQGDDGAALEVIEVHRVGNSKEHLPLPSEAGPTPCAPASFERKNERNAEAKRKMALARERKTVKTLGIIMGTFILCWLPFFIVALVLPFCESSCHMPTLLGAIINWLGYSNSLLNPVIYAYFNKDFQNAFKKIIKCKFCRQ
Chain of PRMT1 (Q99873 whole entry): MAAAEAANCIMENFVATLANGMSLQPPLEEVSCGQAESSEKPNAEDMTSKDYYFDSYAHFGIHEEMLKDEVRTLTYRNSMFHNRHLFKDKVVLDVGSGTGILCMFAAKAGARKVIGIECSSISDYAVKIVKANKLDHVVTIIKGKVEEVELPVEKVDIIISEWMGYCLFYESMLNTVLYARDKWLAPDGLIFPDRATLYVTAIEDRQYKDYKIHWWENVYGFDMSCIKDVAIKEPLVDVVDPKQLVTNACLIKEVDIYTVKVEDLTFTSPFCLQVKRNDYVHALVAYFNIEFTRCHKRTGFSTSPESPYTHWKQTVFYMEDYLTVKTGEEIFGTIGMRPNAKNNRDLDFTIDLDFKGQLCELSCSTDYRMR
Chain of ACHE (P22303 32-614): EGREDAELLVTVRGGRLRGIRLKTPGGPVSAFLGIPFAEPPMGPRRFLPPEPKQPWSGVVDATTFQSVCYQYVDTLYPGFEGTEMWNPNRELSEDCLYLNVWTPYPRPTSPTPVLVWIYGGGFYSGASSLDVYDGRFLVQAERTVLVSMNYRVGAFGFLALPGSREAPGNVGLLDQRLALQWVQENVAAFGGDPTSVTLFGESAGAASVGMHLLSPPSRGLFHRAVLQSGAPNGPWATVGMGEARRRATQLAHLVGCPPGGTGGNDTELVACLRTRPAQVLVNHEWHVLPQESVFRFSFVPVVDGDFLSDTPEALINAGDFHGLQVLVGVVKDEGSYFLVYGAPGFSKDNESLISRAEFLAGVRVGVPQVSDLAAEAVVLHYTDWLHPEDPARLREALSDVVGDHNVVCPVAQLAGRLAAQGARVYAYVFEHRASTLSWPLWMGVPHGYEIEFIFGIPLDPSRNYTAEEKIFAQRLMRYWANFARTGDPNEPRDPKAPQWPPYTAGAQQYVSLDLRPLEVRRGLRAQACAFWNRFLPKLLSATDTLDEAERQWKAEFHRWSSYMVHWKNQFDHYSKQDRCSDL

On to `CCCCCCCCCCCCOS(=O)(=O)[O-].[Na+]` [Sodium lauryl sulfate], for which the “Ki/IC50 Or EC50” value was determined as 15 µM on ADORA3; 29 µM on CHRM1 (Table 2, CHRM1, accurate to ±20%); 18 µM at DRD3; 15 µM on HTR1A; 15 µM on PRG; 23 µM at PDE4D. For the same molecule, on ADRA1A, the “Ki/IC50 Or EC50” value stood at 15 µM. Moreover, the Ki/IC50 is 2.8 µM at SLCO2B1 (Table 1, predicted target SLCO2B1) and 2.9 µM on SLCO1B1.
In data set [1], `CCCCOC(=O)c1ccc(O)cc1` [Butylparaben] returned a Papp of 83 nm/s. In addition, the “MCP-1 (CCL2) and sPGE2 levels” value in data set [2] (peripheral blood mononuclear cells and venular endothelial cells) is recorded as “dose-dependently decreased”. On CHRM1 (Table 1, predicted target CHRM1), the Ki/IC50 was 12 µM. Besides, the “Ki/IC50 Or EC50” value came to 6.6 µM on SLC18A2; 19 µM on TBXA2R (Table 2, TBXA2R, accurate to ±20%); 20 µM on SLC6A2; 39 µM on SLCO2B1 (Table 2, SLCO2B1, accurate to ±20%); 33 µM at SCN5A; 18 µM at SLC6A3. Also, the “Ki/IC50 Or EC50” value at ADRA1A was found to be 16 µM. The IC50 against TBXA2R came to 19 µM. In addition, in [3] (dosed at 10 mg/kg oral), the “concentrations in the blood” value is “negligible concentrations in the blood”. For the same molecule, the Cmax in [3] (in vivo, po, 10 mg/kg) was less than 2.6 nM.
In the case of FD&C Red No. 3, the “MDCK-LE Papp” value is less than 5 nm/s. Further, at ACHE, the “Ki/IC50 Or EC50” value turned out to be 0.42 µM. In addition, the “%F” value in data set [4] amounted to 0.7%. Further, the “Ki/IC50 Or EC50” value on PDE3A (Table 2, PDE3A, accurate to ±20%) worked out at 0.092 µM. Moreover, the IC50 on PDE3A (Table 4, target PDE3A) came to 0.092 µM. For the same molecule, the “Ki/IC50 Or EC50” value on PDE4D stood at 0.32 µM. In addition, the Ki/IC50 at PRMT1 was 0.46 µM. Besides, the plasma protein binding in [5] worked out at 99%.
`COC(=O)[C@H](Cc1ccccc1)NC(=O)[C@@H](N)CC(=O)O` [Aspartame] (HELM PEPTIDE1{D.F.[CO[*:1]]}$$$$V2.0): the “Ki/IC50 Or EC50” value on NR1I2 worked out at 13 µM. For the same molecule, the “activity in the BioMAP cell-based systems” value in data set [2] (1.1, 3.3, 10, 30 μM) was “no measurable activity”.
Regarding `O=C(O)c1ccccc1` [Benzoic acid], the “Ki/IC50 Or EC50” value at SLC18A2 was 18 µM; at ABCB11, 260 µM.
